The text below walks through data of patent US10702489B2, “Treatment of nervous system disorders using combinations of RXR agonists and thyroid hormones” (IO Therapeutics, Inc., priority 2015, dated 2020).

Series [1] concerns C57BL/6J mice with cuprizone+rapamycin demyelination. The format is in vivo.
In series [2] the test system is C57BL/6 (B6) mice with experimental autoimmune encephalomyelitis (EAE). Kind of series: EAE in C57BL/6 (B6) mice, MOG peptide. In kind it is in vivo, mouse. The note with it: IRX4204 50 μg every other day from day 7 to day 20. The procedure: Mice were also given 200 ng of pertussis toxin in PBS administered by inter-peritoneal (i.p.) injection on the same day as MOG emulsion injection (day 0) and 2 days later (day 2). […] Mice were scored using the following scale: 0—Mice have no disease, 1—Mice have distal limp tail or rear leg weakness (paresis), 1.5—Mice have distal limp tail and rear leg weakness, 2—Mice have complete limp tail and rear leg weakness, 2.5—Mice have complete limp tail and weakness in both rear legs, 3—Mice have complete limp tail and paralysis in both rear legs, 3.5—Mice have complete limp tail, paralysis in both rear legs, and forelimb weakness. Mice receiving a score of 3.5 were immediately euthanized.

The test system of series [3] is oligodendrocyte precursor cells (OPCs). Kind of series: oligodendrocyte precursor cell differentiation (PLP-EGFP). The format is cell-based, mouse. The text has this: OPCs were generated from a neurosphere culture of E14.5 PLP-EGFP (on C57BL/6J background) mouse brains. […] The EGFP expressing cells were quantified with Cellomics Neuronal Profiling Algorithm.
The EGFP expressing cells in controls and all compounds were quantified with Cellomics Neuronal Profiling Algorithm.

For series [4], the target named is RXRγ (Homo sapiens, UniProt P48443). The procedure:
(§1) To determine whether a RXR agonist can mediate its effects via RXRα receptor homodimers, RXRβ receptor homodimers, RXRγ receptor homodimers, or any combination thereof, or the corresponding RAR/RXR heterodimers, receptor-mediated transactivation assays were performed. For transactivation assays assessing RXR homodimer signaling, CV-1 cells were transfected with 1) an expression construct including a full length RXRα, RXRβ, or RXRγ; and 2) a rCRBPII/RXRE-tk-Luc reporter construct that included RXR homodimer-specific RXRE/DR1 responsive element linked to a luciferase gene. For transactivation assays assessing RAR/RXR heterodimer signaling, CV-1 cells were transfected with 1) an expression construct comprising a fusion protein including an estrogen receptor (ER) DNA binding domain linked to the ligand binding domain of RARα, RARβ, or RARγ and 2) a ERE-tk-Luc reporter construct that included an estrogen receptor responsive element linked to a luciferase gene. […] Data are mean values±SE from five independent experiments.

The target of series [5] is T1, RXRα (Homo sapiens, UniProt P19793).
T1 sequence (P19793 1-462): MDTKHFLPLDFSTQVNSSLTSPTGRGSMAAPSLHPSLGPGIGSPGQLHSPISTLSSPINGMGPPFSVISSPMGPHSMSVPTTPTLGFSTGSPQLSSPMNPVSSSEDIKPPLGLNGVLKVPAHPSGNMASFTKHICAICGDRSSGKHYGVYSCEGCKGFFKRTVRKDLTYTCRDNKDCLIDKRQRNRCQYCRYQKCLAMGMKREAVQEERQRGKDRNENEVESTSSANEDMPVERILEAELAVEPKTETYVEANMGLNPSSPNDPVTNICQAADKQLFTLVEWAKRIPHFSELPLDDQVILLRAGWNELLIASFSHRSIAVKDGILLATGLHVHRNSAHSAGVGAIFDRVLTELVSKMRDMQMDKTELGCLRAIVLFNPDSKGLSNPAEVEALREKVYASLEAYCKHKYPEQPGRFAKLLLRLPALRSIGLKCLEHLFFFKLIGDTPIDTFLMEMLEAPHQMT
The procedure:
as §1

The subject of series [6] is C57BL/6J mice with cuprizone+rapamycin demyelination. Kind of series: 12-week cuprizone/rapamycin demyelination model, 6 weeks of treatment. The format is in vivo, mouse. The settings on record: 6 weeks of treatment after 12 weeks CR. From the text:
All animals were sacrificed after 12 weeks of CR or after further 6 weeks of treatment to evaluate myelin in white matter (corpus callosum) and gray matter (hippocampus and cortex). In addition, the size of myelinated axons was quantified and the large myelinated axons were further assessed by 3D-electron microscopy (3D-EM). A total of 40 animals were included in the study, where all 40 animals received CR demyelination for 12 weeks. After demyelination, a subset (n=10) of animals are sacrificed to serve as controls to assess baseline demyelination. […] Floating brain sections are immunostained with myelin prolipid protein (PLP) to visualize and quantify myelin in gray matter, hippocampus (FIG. 16A) and cortex (FIG. 16B).

“Also recorded” adds a separate entry of the source.

Chain of RXRγ (P48443 whole entry, the tested form may be a part): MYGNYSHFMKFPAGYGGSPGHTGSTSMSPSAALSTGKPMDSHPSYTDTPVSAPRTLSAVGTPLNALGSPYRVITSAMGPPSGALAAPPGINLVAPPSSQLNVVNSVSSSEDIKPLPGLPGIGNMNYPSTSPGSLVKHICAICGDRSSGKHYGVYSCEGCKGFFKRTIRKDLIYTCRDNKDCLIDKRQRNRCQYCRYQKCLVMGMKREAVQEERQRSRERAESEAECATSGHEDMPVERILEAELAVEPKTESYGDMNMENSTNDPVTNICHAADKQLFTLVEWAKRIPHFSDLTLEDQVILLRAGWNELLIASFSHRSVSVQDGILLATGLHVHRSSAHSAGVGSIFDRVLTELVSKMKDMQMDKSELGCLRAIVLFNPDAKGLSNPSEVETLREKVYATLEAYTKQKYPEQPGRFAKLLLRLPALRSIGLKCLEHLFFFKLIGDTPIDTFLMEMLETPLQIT

For `CC(/C=C/[C@@H]1C[C@]1(C)c1ccc2c(c1)C(C)(C)CCC2(C)C)=C\C(=O)O` [IRX4204, 3,7-dimethyl-6(S),7(S)-methano,7-[1,1,4,4-tetramethyl-1,2,3,4-tetrahydronaphth-7-yl]2(E),4(E) heptadienoic acid], the terminal body weights result in series [1] (ANOVA, IRX4204 or vehicle groups) is recorded as “no significant difference”. Moreover, the “number of SMI32 positive axonal ovoids in corpus callosum” value in series [1] (IRX4204 10 mg/kg PO, T4 20 ng/g SQ, daily 6 weeks, versus Vehicle, 10 mg/kg) is “trend towards decreased number of axonal ovoids but was not statistically different from the Vehicle; also recorded: trend towards decrease in axonal ovoids, but it was statistically not different from vehicle”. Moreover, the “microglial/macrophage activation (Iba1 staining) in corpus callosum” value in series [1] (daily 6 weeks, versus vehicle) is “no difference”. Further, the “decrease in T4 levels compared to vehicle control animals” value in series [1] (terminal blood draw) is on record as around 50%. Also, in series [2], the “symptoms of EAE (scores of disease severity over time)” value is recorded as “significantly reduces the symptoms of EAE”. The “OPC differentiation into oligodendrocytes (EGFP positive cells compared to DMSO)” value in series [3] (all concentrations except the lowest (1^−6 μM)) is “significant increase; also recorded: dose dependent increase”. Besides, the “total cell number and pyknotic cells” value in series [3] (compared to controls) is “did not show any differences”. Further, the “Efficacy (% of 1 μM IRX4204) RXRγ” value in series [4] is given as 100 % of 1 μM IRX4204. The “Efficacy (% of 1 μM IRX4204) RXRα” value in series [5] (CV-1 cells) was 100 % of 1 μM IRX4204. In addition, the “more potent in activating RXR receptors rather than RAR receptors” value in series [5] (RXR versus RAR receptors) is on record as > 1,000 fold. Also, in series [6], the “size of myelinated axons in the corpus callosum” value is listed as “significantly increases; also recorded: shift in distribution to larger axon diameter”.
